This is an account of results in ChEMBL document CHEMBL4765487, “From a Designer Drug to the Discovery of Selective Cannabinoid Type 2 Receptor Agonists with Favorable Pharmacokinetic Profiles for the Treatment of Systemic Sclerosis” (J Med Chem, 2021).

Data set [1] has as its target T1, Cannabinoid receptor 2 (Homo sapiens, UniProt P34972). The data set is described as follows: Antagonist activity at human CB2 receptor expressing CHO cells co-expressing Galpha16 assessed as inhibition of CP55940-induced calcium mobilization pre-incubated for 15 mins before CP55940 addition. Format: functional, cell-based. (A change in cytosolic calcium serves as a functional read-out for many receptors and channels.)

The target in data set [2] is T2, Cannabinoid receptor 1 (Homo sapiens, UniProt P21554). The data set is described as follows: Agonist activity at human CB1 receptor expressing CHO cells co-expressing Galpha16 by calcium mobilization assay. Format: functional, cell-based.
T2 sequence (P21554 whole entry): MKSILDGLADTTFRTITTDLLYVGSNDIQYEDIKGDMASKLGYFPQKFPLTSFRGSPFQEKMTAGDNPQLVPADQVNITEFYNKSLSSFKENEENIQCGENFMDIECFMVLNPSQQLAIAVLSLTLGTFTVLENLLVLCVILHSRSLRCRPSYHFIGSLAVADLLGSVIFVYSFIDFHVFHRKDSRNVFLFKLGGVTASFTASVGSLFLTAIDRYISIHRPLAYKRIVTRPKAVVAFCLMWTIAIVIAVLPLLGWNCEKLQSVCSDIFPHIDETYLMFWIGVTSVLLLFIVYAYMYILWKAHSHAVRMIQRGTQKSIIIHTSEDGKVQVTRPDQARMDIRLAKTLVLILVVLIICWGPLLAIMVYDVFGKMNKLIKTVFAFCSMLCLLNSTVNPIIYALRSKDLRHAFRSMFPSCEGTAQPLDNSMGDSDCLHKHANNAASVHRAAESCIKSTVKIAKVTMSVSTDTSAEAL
The target in data set [3] is T1, Cannabinoid receptor 2. The data set is described as follows: Agonist activity at human CB2 receptor expressing CHO cells co-expressing Galpha16 by calcium mobilization assay. Format: functional, cell-based.
Data set [4] can be described thus: in vitro. Conditions: human, liver microsomes. A general note: Liver microsomes are vesicles of endoplasmic reticulum, rich in cytochrome P450 enzymes.
Description: Half life in human liver microsomes at 1 uM in presence of NADPH by LC-MS/MS analysis
The nature of data set [5]: in vitro. Conditions: human, liver microsomes. This is another data set of the same source.
The nature of data set [6]: in vitro. Conditions: human, liver.
Data set [7] can be described thus: in vitro. Conditions: human, liver microsomes. The source holds these as a separate data set.
Description: Stability in human liver microsomes assessed as parent compound remaining at 1 uM incubated for 60 mins in presence of NADPH by LC-MS/MS analysis
The target in data set [8] is T2, Cannabinoid receptor 1. Put plainly: Agonist activity at human CB1 receptor expressing CHO cells co-expressing Galpha16 at 10 uM by calcium mobilization assay. Format: functional, cell-based. As to conditions: filed as agonist.
Data set [9] concerns the target T2, Cannabinoid receptor 1. Put plainly: Induction of receptor desensitization at human CB1 receptor expressing CHO cells co-expressing Galpha16 at 10 uM followed by washing with HBSS buffer upon incubation for 10 mins and restimulated with CP55940 by calcium mobilization assay. Format: functional, cell-based. Conditions: filed as agonist.
Data set [10] addresses T2, Cannabinoid receptor 1. Put plainly: Agonist activity at CB1 receptor (unknown origin) relative to control. As to conditions: filed as agonist.
The target in data set [11] is T2, Cannabinoid receptor 1. Put plainly: Agonist activity at CB1 receptor (unknown origin).
Data set [12] deals with T1, Cannabinoid receptor 2. The data set is described as follows: Agonist activity at CB2 receptor (unknown origin) relative to control. As to conditions: filed as agonist.
For data set [13], the target named is T2, Cannabinoid receptor 1. The data set is described as follows: Agonist activity at human CB1 receptor expressing CHO cells co-expressing Galpha16 by calcium mobilization assay relative to CP55940. Format: functional, cell-based. As to conditions: filed as agonist.
Data set [14] addresses T1, Cannabinoid receptor 2. The data set is described as follows: Agonist activity at human CB2 receptor expressing CHO cells co-expressing Galpha16 by calcium mobilization assay relative to CP55940. Format: functional, cell-based. Conditions: filed as agonist.

The structures appear in SMILES notation. Activity calls are given as the source filed them. No cut-off for these calls is given here.

T1 sequence (P34972 whole entry): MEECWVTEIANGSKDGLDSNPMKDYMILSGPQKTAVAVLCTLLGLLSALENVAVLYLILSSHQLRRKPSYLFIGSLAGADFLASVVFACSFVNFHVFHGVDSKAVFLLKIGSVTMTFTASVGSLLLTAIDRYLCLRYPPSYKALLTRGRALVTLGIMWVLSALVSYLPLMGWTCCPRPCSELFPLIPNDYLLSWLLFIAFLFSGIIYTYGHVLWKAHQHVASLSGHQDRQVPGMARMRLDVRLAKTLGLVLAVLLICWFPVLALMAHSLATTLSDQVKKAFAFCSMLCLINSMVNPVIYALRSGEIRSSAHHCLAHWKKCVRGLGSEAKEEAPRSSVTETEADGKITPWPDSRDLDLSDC

Broadly, the IC50 is the concentration needed to halve the response being measured. One may read the EC50 as the concentration giving half of the maximal effect. In general, half-life refers to how long it takes for the measured level to halve. A higher half-life goes with slow decline. One may read the microsomal CLint as a measure of how fast metabolising enzymes remove a compound, apart from limits set by blood flow. The term CLint scaled denotes the capacity of the preparation to metabolise the compound, expressed as a volume cleared per time. What is called share remaining is what is left of the initial amount, in per cent. Low readings indicate more turnover, high ones less turnover. With `CCCCCn1nc(C(=O)NC(C)(C)CO)cc1-c1ccc(F)cc1F`, the IC50 at Cannabinoid receptor 2 [1] (read-out: IC50) worked out at 87.1 nM. The EC50 on Cannabinoid receptor 1 [2] and at Cannabinoid receptor 2 [3] was 100000 nM in each case. In “in vitro [4]”, this molecule registered a half-life at 1 µM of 21.4 min. In addition, the microsomal CLint at 1 µM in the data set “in vitro [5]” stood at 64.6 µL/min/mg. In the data set “in vitro [6]”, this molecule showed a CLint scaled at 1 µM of 58.2 mL/min/kg. The amount remaining at 1 h, 1 µM in “in vitro [7]” stood at 14.1%.
On to `CCCCCCC(C)(C)c1ccc([C@@H]2C[C@H](O)CC[C@H]2CCCO)c(O)c1` [CP-55940], for which the IC50 entry on Cannabinoid receptor 2 [1] (cho) is listed as “Not Active”. Moreover, the result at Cannabinoid receptor 1 [8] and on Cannabinoid receptor 1 [9] was Active.
One may read the Emax as the size of the effect at its maximum, as opposed to the concentration needed. Regarding `CCCCCn1cc(C(=O)NC23CC4CC(CC(C4)C2)C3)c2ccccc21`, the Emax at Cannabinoid receptor 1 [10] is 98%; at Cannabinoid receptor 2 [12], 91%. This molecule also showed an EC50 at Cannabinoid receptor 1 [11] of 34 nM.
With `CCCCCn1nc(C(=O)NC(C)(C)CO)c(N)c1C(C)(C)C`, on Cannabinoid receptor 2 [1] (cho), the IC50 result was “Not Active”. In addition, the EC50 worked out at 195 nM on Cannabinoid receptor 1 [2] and 5.5 nM at Cannabinoid receptor 2 [3]. Besides, the Emax at Cannabinoid receptor 1 [13] amounted to 80%; on Cannabinoid receptor 2 [14] it was 100%. This molecule also showed a half-life at 1 µM in “in vitro [4]” of 13.3 min. In the data set “in vitro [5]”, the microsomal CLint at 1 µM is 104 µL/min/mg. The same molecule registered a CLint scaled at 1 µM in “in vitro [6]” of 94 mL/min/kg. This molecule registered an amount remaining at 1 h, 1 µM in the data set “in vitro [7]” of 4.6%.
